Reference: US9216964B2, “Hedgehog pathway modulators” (Novartis AG, priority 2008, dated 2015)

system: hedgehog signaling pathway; assay: Gli-Luc Reporter Assay for Hh Pathway Inhibition (TMHh-12 cells, pTA-8×Gli-Luc reporter); assay type: cell-based, Mouse; settings: Mus musculus, TMHh12, Ag1.5 1 nM; read-out: Hedgehog Inhibition IC50 (nM) (Ag1.5 1 nM)
Procedure: Compounds of the present invention are assayed to evaluate their capacity to inhibit the hedgehog signaling pathway.
Gli-Luc Reporter Assay for Hh Pathway Inhibition
Mouse TM3 cells (obtained from American Type Culture Collection, ATCC, Manassas, Va.) are cultured in DMEM/F12 medium (Gibco/Invitrogen, Carlsbad, Calif.) supplemented with 5% heat inactivated horse serum and 2.5% FBS (Gibco/Invitrogen, Carlsbad, Calif.), 50 unit/mL penicillin and 50 μg/mL of streptomycin (Gibco/Invitrogen, Carlsbad, Calif.) at […] with 5% CO2 in air atmosphere. TM3 cells were transfected with pTA-8×Gli-Luc reporter plasmid. A stably transfected clone termed TMHh-12 was selected. […] To evaluate the IC50s of the antagonists, 8000 TMHh-12 cells were plated into each wells in 384-well plates with 50% DMEM/F12 medium supplemented with 2% FBS. After 12 hours, Hh pathway is activated by adding recombinant mouse Shh protein (expressed in E. coli, 8 μg/mL) or by adding Smo agonists. The testing compounds are added into plates with different concentrations. After 48 hours, the firefly luciferase luciferase activities are assayed with the Bright-Glo™ Luciferase Assay System (Promega, Madison, Wis.). The IC50 is measured when the effect of the compound reduces the luminescence signal by 50%. Toxicity of these compounds are evaluated in TM3 cells using CellTiter Glo assays or by TM3-Luc cell line (a TM3 cell stably transfected with a constitutive luciferase expression vector).

IC50	SMILES
564 nM	Cc1ccc(Nc2cccc3c2CCN(S(C)(=O)=O)C3)cc1-c1ccc(CO)cc1 [Compound 156]
0.3 nM	Cc1ccc(Nc2cccc3c2CCN(S(C)(=O)=O)C3)cc1-c1cc2ccccc2cn1 [Compound 229]
135 nM	Cc1ccc(Nc2cccc3c2CCN(S(C)(=O)=O)C3)cc1-c1cnc(N(C)C)nc1 [Compound 124]
3.8 nM	CN(C)c1ccc2nc(-c3cc(Nc4cccc5c4CCN(S(C)(=O)=O)C5)ccc3Cl)[nH]c2c1 [Compound 16]
0.7 nM	O=C1CCC(N2CCc3c(cccc3Nc3ccc(Cl)c(-c4ncc(-c5ccccc5)[nH]4)c3)C2)CC1 [Compound 33]
> 10000 nM	Cc1ccc(Nc2cccc3c2CCN(S(C)(=O)=O)C3)cc1-c1ccc(-c2nnn[nH]2)cc1 [Compound 143]
1.1 nM	Cc1ccc(Nc2cccc3c2CCN(S(C)(=O)=O)C3)cc1C(=O)Nc1ccc(OC(F)(F)F)cc1 [Compound 187]
694 nM	Cc1cc2c(cn1)cc(-c1cc(Nc3cccc4c3CCN(S(C)(=O)=O)C4)ccc1C)c(=O)n2C [Compound 116]

same assay, conditions: Mus musculus, TMHh12, enzymatic and cellular assays for the inhibition of hedgehog signaling pathways; read-out: IC50 Ranges

SMILES	IC50
CC1(CN2CCc3c(cccc3Nc3ccc(Cl)c(-c4ncc(-c5ccccc5)[nH]4)c3)C2)CC1 [Compound 95]	0.001 to 1 nM
Cc1ccc(Nc2cccc3c2CCN(S(C)(=O)=O)C3)cc1-c1nc2ccccc2o1 [Compound 105]	1 to 10 nM
Cc1nc(-c2ccc(-c3cc(Nc4cccc5c4CCN(S(C)(=O)=O)C5)ccc3C)cc2)cs1 [Compound 120]	10 to 100 nM
Cc1ccc(Nc2cccc3c2CCN(S(C)(=O)=O)C3)cc1-c1ccc(CO)cc1 [Compound 156]	100 to 1000 nM
COc1cnc(-c2cc(Nc3cccc4c3CCN(S(C)(=O)=O)C4)ccc2C)nc1 [Compound 176]	10 to 100 nM
Cc1ccc(Nc2cccc3c2CCN(S(C)(=O)=O)C3)cc1-c1cc2ccccc2cn1 [Compound 229]	0.001 to 1 nM
Cc1ccc(Nc2cccc3c2CCN(S(C)(=O)=O)C3)cc1-c1cnc(N(C)C)nc1 [Compound 124]	100 to 1000 nM
Cc1ccc(-c2cc(Nc3cccc4c3CCN(CC(C)(C)F)C4)ccc2C)nc1 [Compound 200]	0.001 to 1 nM
Clc1ccc(Nc2cccc3c2CCN(Cc2nn[nH]n2)C3)cc1-c1ncc(-c2ccccc2)[nH]1 [Compound 86]	1 to 10 nM
CN(C)c1ccc2nc(-c3cc(Nc4cccc5c4CCN(S(C)(=O)=O)C5)ccc3Cl)[nH]c2c1 [Compound 16]	1 to 10 nM
CS(=O)(=O)N1CCc2c(cccc2Nc2cc(C(=O)Nc3ccccc3)c(Cl)cn2)C1 [Compound 203]	1 to 10 nM
Cc1ccc(Nc2cccc3c2CCN(S(C)(=O)=O)C3)cc1-c1cccc(C#N)c1 [Compound 119]	10 to 100 nM
CC(=O)N1CCC(N2CCc3c(cccc3Nc3ccc(Cl)c(-c4ncc(-c5ccccc5)[nH]4)c3)C2)CC1 [Compound 11]	0.001 to 1 nM
C[S+]([O-])CC(=O)N1CCc2c(cccc2Nc2ccc(Cl)c(-c3ncc(-c4ccccc4)[nH]3)c2)C1 (stereo not drawn) [Compound 19]	0.001 to 1 nM
Cc1ncc(Nc2cccc3c2CCN(S(C)(=O)=O)C3)cc1-c1nc2ccccc2[nH]1 [Compound 111]	1 to 10 nM
CC(C)N1CCC(N2CCc3c(cccc3Nc3ccc(Cl)c(-c4ncc(-c5ccccc5)[nH]4)c3)C2)CC1 [Compound 36]	0.001 to 1 nM
Cc1ccc(Nc2cccc3c2CCN(S(C)(=O)=O)C3)cc1-c1ccc(F)cn1 [Compound 164]	0.001 to 1 nM
Cc1ccc(Nc2cccc3c2CCN(S(C)(=O)=O)C3)cc1-c1ccc(-c2ccco2)cc1 [Compound 121]	100 to 1000 nM
O=C(N1CCc2c(cccc2Nc2ccc(Cl)c(-c3ncc(-c4ccccc4)[nH]3)c2)C1)C1(O)CC1 [Compound 74]	0.001 to 1 nM
COc1ccc(-c2cc(Nc3cccc4c3CCN(S(C)(=O)=O)C4)ccc2C)cc1 [Compound 99]	10 to 100 nM
Cc1ccc(Nc2cccc3c2CCN(S(C)(=O)=O)C3)cc1OCc1ccc(C#N)cc1 [Compound 166]	10 to 100 nM

SMILES	IC50
Cc1ccc(Nc2cccc3c2CCN(S(C)(=O)=O)C3)cc1-c1ccc(C#N)nn1 [Compound 207]	10 to 100 nM
C[C@H](C(=O)O)N1CCc2c(cccc2Nc2ccc(Cl)c(-c3nc(-c4ccccc4)c[nH]3)c2)C1 [Compound 78]	1 to 10 nM
O=C1CCC(N2CCc3c(cccc3Nc3ccc(Cl)c(-c4ncc(-c5ccccc5)[nH]4)c3)C2)CC1 [Compound 33]	0.001 to 1 nM
CS(=O)(=O)N1CCc2c(cccc2Nc2cccc(-c3ccc(C#N)cc3)c2)C1 [Compound 132]	10 to 100 nM
Cc1ccc(Nc2cccc3c2CCN(S(C)(=O)=O)C3)cc1-c1ccc(-c2nnn[nH]2)cc1 [Compound 143]	> 10000 nM
Cc1ccc(Nc2cccc3c2CCN(S(C)(=O)=O)C3)cc1OCc1ccccn1 [Compound 215]	10 to 100 nM
CNS(=O)(=O)N1CCc2c(cccc2Nc2ccc(Cl)c(-c3ncc(-c4ccccc4)[nH]3)c2)C1 [Compound 25]	1 to 10 nM
Cc1ccc(Nc2cccc3c2CCN(S(C)(=O)=O)C3)cc1C(=O)N(C)c1ccccc1 [Compound 193]	100 to 1000 nM
Cc1ccc(Nc2cccc3c2CCN(CC(C)(C)O)C3)cc1-c1ccc(F)cn1 [Compound 181]	1 to 10 nM
Cc1ccc(Nc2cccc3c2CCN(S(C)(=O)=O)C3)cc1-c1ccc(C(=O)NCC(C)O)cc1 (stereo not drawn) [Compound 148]	100 to 1000 nM
[O-][n+]1ccc(N2CCc3c(cccc3Nc3ccc(Cl)c(-c4ncc(-c5ccccc5)[nH]4)c3)C2)cc1 [Compound 49]	1 to 10 nM
CN1CCC(N2CCc3c(cccc3Nc3ccc(Cl)c(-c4ncc(-c5ccccc5)[nH]4)c3)C2)CC1 [Compound 41]	1 to 10 nM
Cc1ccc(-c2cc(Nc3cccc4c3CCN(CC(F)(F)CO)C4)ccc2C)nc1 [Compound 212]	0.001 to 1 nM
Cc1ccc(Nc2cccc3c2CCN(S(C)(=O)=O)C3)cc1C(=O)Nc1ccc(OC(F)(F)F)cc1 [Compound 187]	1 to 10 nM
Cc1ccc(Nc2cccc3c2CCN(CCC(F)(F)F)C3)cc1-c1ccc(C#N)cn1 [Compound 196]	1 to 10 nM
Cc1ccc(Nc2cccc3c2CCN(C(=O)C(C)(CO)CO)C3)cc1-c1nc2ccccc2[nH]1 [Compound 70]	0.001 to 1 nM
CC1(N2CCc3c(cccc3Nc3ccc(Cl)c(-c4ncc(-c5ccccc5)[nH]4)c3)C2)CC1 [Compound 80]	1 to 10 nM
Cc1cnc(-c2cc(Nc3cccc4c3CCN(S(C)(=O)=O)C4)ccc2C)c(F)c1 [Compound 228]	0.001 to 1 nM
C[C@@H](O)C(=O)N1CCc2c(cccc2Nc2ccc(Cl)c(-c3ncc(-c4ccccc4)[nH]3)c2)C1 [Compound 8]	0.001 to 1 nM
Cc1ccc(Nc2cccc3c2CCN(CC(C)(C)F)C3)cc1C(=O)Nc1ccccc1 [Compound 221]	1 to 10 nM
Cc1cc2c(cn1)cc(-c1cc(Nc3cccc4c3CCN(S(C)(=O)=O)C4)ccc1C)c(=O)n2C [Compound 116]	100 to 1000 nM

Next, values leading:

IC50	SMILES
0.001 to 1 nM	Cc1ccc(Nc2cccc3c2CCN(S(C)(=O)=O)C3)cc1-c1ccc(N(C)C)cn1 [Compound 291]
10 to 100 nM	COc1cnnc(-c2cc(Nc3cccc4c3CCN(S(C)(=O)=O)C4)ccc2C)c1 [Compound 270]
0.001 to 1 nM	COc1ccnc(-c2cc(Nc3cccc4c3CCN(S(C)(=O)=O)C4)ccc2C)c1 [Compound 230]
100 to 1000 nM	Cc1ccc(Nc2ncnc3c2CCN(S(C)(=O)=O)C3)cc1C(=O)Nc1ccccc1 [Compound 301]
1 to 10 nM	COc1ccc(-c2cc(Nc3cccc4c3CCN(C3CCS(=O)(=O)CC3)C4)ccc2C)nn1 [Compound 306]
10 to 100 nM	Cc1ccc(-c2cc(Nc3ncnc4c3CCN(C3CS(=O)(=O)C3)C4)ccc2C)nc1 [Compound 288]
1 to 10 nM	Cc1ccc(Nc2cccc3c2CCN(S(C)(=O)=O)C3)cc1-c1ccc(N(C)C)nn1 [Compound 254]
1 to 10 nM	CCS(=O)(=O)N1CCc2c(cccc2Nc2ccc(C)c(-c3ccc(OC)nn3)n2)C1 [Compound 318]
1 to 10 nM	Cc1ccc(Nc2ncnc3c2CCN(C2CCS(=O)(=O)CC2)C3)cc1-c1cc2ccccc2cn1 [Compound 342]
1 to 10 nM	COc1ccc(-c2cc(Nc3cccc4c3CCN([C@H]3CCS(=O)(=O)C3)C4)ccc2C)nn1 [Compound 322]
10 to 100 nM	Cc1ccc(Nc2nccc3c2CCN(C2CS(=O)(=O)C2)C3)cc1-c1cc2ccccc2cn1 [Compound 332]
1 to 10 nM	CCOc1cnc(-c2cc(Nc3cccc4c3CCN(CCS(C)(=O)=O)C4)ccc2C)cn1 [Compound 310]
1 to 10 nM	CCOc1cnc(-c2cc(Nc3cccc4c3CCN(C3CS(=O)(=O)C3)C4)ccc2C)cn1 [Compound 313]
0.001 to 1 nM	Cc1ccc(-c2nc(Nc3cccc4c3CCN(S(C)(=O)=O)C4)ccc2Cl)nc1 [Compound 273]
1 to 10 nM	Cc1ccc(Nc2cccc3c2CCN(S(C)(=O)=O)C3)nc1-c1ccccn1 [Compound 312]
0.001 to 1 nM	Cc1ccc(Nc2cccc3c2CCN(C2CCS(=O)(=O)CC2)C3)cc1-c1ncccc1F [Compound 269]
10 to 100 nM	Cc1cnc(-c2cc(Nc3cccc4c3CCN(C3CCS(=O)(=O)C3)C4)ccc2C)nc1 (stereo not drawn) [Compound 267]
0.001 to 1 nM	CCS(=O)(=O)N1CCc2c(ncnc2Nc2ccc(C)c(-c3ccc(F)cn3)c2)C1 [Compound 299]
0.001 to 1 nM	Cc1ccc(Nc2nccc3c2CCN(C2CCS(=O)(=O)CC2)C3)cc1-c1cc2ccccc2cn1 [Compound 344]
1 to 10 nM	CCOc1cnc(-c2nc(Nc3cccc4c3CCN(S(=O)(=O)CC)C4)ccc2C)cn1 [Compound 330]
1 to 10 nM	Cc1ccc(Nc2cccc3c2CCN(CCS(C)(=O)=O)C3)cc1-c1ccc(C#N)cn1 [Compound 245]
0.001 to 1 nM	Cc1ccc(Nc2ncnc3c2CCN(S(C)(=O)=O)C3)cc1-c1cc2ccccc2cn1 [Compound 307]

same assay, conditions: enzymatic and cellular assays for the inhibition of hedgehog signaling pathways; read-out: IC50 Ranges

IC50	SMILES
1 to 10 nM	Cc1ccc(Nc2cccc3c2CCN(C2CCS(=O)(=O)CC2)C3)cc1-c1ncc(-c2cccnc2)[nH]1 [Compound 75]
0.001 to 1 nM	Cc1ccc(Nc2cccc3c2CCN([C@H]2CCS(=O)(=O)C2)C3)cc1-c1ncccc1F [Compound 343]
0.001 to 1 nM	Cc1ccc(Nc2cccc3c2CCN([C@@H]2CCS(=O)(=O)C2)C3)cc1-c1ncccc1F [Compound 341]
